{"source": "patent US20170304329A1", "about": "(THE UNIVERSITY OF KANSAS, priority 2014, published 2017)", "key": {"[1]": {"system": "253-JBV bladder cancer cells", "test": "Clonogenicity assay", "type": "cell-based, human", "conditions": "48 h treatment, then 10 days", "method": "(§1) We next determined the long-term effect of ciclopirox (CPX) on bladder cancer cells using the clonogenicity assay. For this assay, 6-well plates were seeded with 500 viable cells and were allowed to grow for overnight. The cells were then incubated in the presence or absence of various concentrations (1 and 5 μM) of CPX for 48 h. The CPX containing medium was then removed, and the cells were washed in PBS and incubated for an additional 10 days in complete medium. Each treatment was done in triplicate. The colonies obtained were washed with PBS and fixed in 10% formalin for 10 min at room temperature and then washed with PBS followed by staining with crystal violet. The colonies were compared to untreated cells.\n(§2) The fresh medium was replaced and allowed to grow for 10 days. The colonies were stained with crystal violet and compared to untreated cells."}, "[2]": {"system": "T24 bladder cancer cells", "test": "Clonogenicity assay", "type": "cell-based, human", "conditions": "48 h treatment, then 10 days", "method": "as §1, §2"}, "[3]": {"system": "253JBV bladder cancer cell spheroids", "test": "Spheroid (bladdosphere) assay", "type": "cell-based, human", "conditions": "I generation, 7 days", "source_text": "(§3) The spheroid assay, which is sometimes also called the 3D assay was developed as a method to propagate epithelial stem cells in vitro, and is now a standard surrogate reporter for stem cell activity. The assay (in this case called bladdosphere assay) is based on the hypothesis that the unique, undifferentiated cells present in bladder cancers will survive in suspension culture, while the other cells will die by anoikis. Therefore, we characterized the effect of ciclopirox (CPX) in bladdosphere assay. Here, cancer cells are plated in ultra-low binding plates and the resulting spheroids are believed to represent growth from stem cells.\n(§4) For formation of spheroids, cells were cultured in RPMI 1640 (Mediatech) supplemented with 20 ng/mL bFGF (Invitrogen) 10 mL per 500 mL of 50×B27 supplement (Invitrogen) EGF 20 ng/mL (Invitrogen) and antibiotic and antimycotic solution. Cells were seeded at low densities (5000 cells/mL) in 6-well low adhesion plates. The cells were treated with increasing concentrations of CPX (0.5×, 1×, and 2× of IC50 calculated from cell proliferation assay—2 μM for 253JBV and 4 μM for T24). After 7 days the spheroids were photographed (I generation). Control spheroids and spheroids treated with CPX (1×IC50) were collected, trypsinized and re-plated for the secondary spheroid growth (II generation), followed by tertiary spheroid development (III generation)."}, "[4]": {"system": "T24 bladder cancer cell spheroids", "test": "Spheroid (bladdosphere) assay", "type": "cell-based, human", "conditions": "I generation, 7 days", "source_text": "as §3, §4"}, "[5]": {"system": "T24 cells", "test": "Flow cytometry-based cell cycle analysis", "set-up": "species or system human", "method": "Flow cytometry-based cell cycle analysis studies were conducted to determine the effect of ciclopirox (CPX) on cell cycle progression in T24 cells (data not shown). […] At 1×IC50 and 2×IC50 concentrations, CPX arrest cells at G0/G1 phase. Cells were treated with CPX and a flow cytometer based analysis was performed."}, "[6]": {"system": "Notch, Wnt and Hedgehog signaling pathways in T24 cells", "test": "RT-PCR array of signal transduction pathways", "type": "cell-based, human", "method": "We performed an RT-PCR array analyses as a preliminary study to identify the pathways affected by ciclopirox (CPX). Expression analysis was performed using RT2 Profiler™ PCR Arrays (SA Biosciences, Frederick, Md., USA) per the manufacturer's instructions. The Human signal transduction pathway finder polymerase chain reaction (PCR) array was used (cat. no. PAHS-014ZA). Briefly, Total RNA isolated from T24 cells using TRIZOL reagent was reverse transcribed with Superscript II reverse transcriptase in the presence of random hexanucleotide primers (all from Invitrogen, Carlsbad, Calif.). Complementary DNA (2 μg) was mixed with 1,275 μL RT2 SYBR Green qPCR Master Mix (PA-010; SA Biosciences) to make up a total volume of 2,550 μL. Each well received 25 μL of this mix. qPCR was performed on an Bio-Rad CFX machine following detection protocols recommended by SA Biosciences. Changes in mRNA expression were expressed as fold change relative to control."}, "[7]": {"system": "Notch1 signaling and γ-secretase complex proteins in T24 cells", "test": "Western blot of Notch signaling pathway proteins", "type": "cell-based, human", "conditions": "bladder cancer cell lines (T24)", "method": "Western blot studies were performed to detect the effect of CPX on the expression of proteins involved in Notch signaling pathway. Cell lysates were subjected to polyacrylamide gel electrophoresis and blotted onto Immobilon polyvinylidene difluoride membranes (Millipore, Bedford, Mass., USA). Antibodies were purchased from Cell Signaling Technology (Beverly, Mass., USA), Abcam Inc. (Cambridge, Mass., USA) and Santa Cruz Biotechnology Inc. (Santa Cruz, Calif., USA) and specific proteins were detected by the enhanced chemiluminescence system (GE Healthcare, Piscataway, N.J., USA)."}, "[8]": {"system": "253JBV cells", "test": "Proliferation with predicted CPX urine concentration in 20% normal urine", "type": "cell-based, human", "conditions": "3 days treatment, 50 uM-1.5625 uM CPX in 20% normal urine, 72 h", "method": "We next determined the effect of CPX in normal urine on T24 and 253JBV cells upon everyday treatment for up to 72 h (3 days treatment). The idea behind this experiment is to see the effect of predicted concentration of CPX in human urine on bladder cancer cells as the patient's bladder will be exposed every day to the predicted concentration of CPX. Three sets of plates were used, one plate each for one day treatment, two days treatment and three days treatment of CPX (50-1.5625 uM). T24 and 253JBV cells were incubated with CPX in normal urine (20% normal urine in complete RPMI media). […] The effect of CPX was determined by hexosaminidase assay beyond the 12 hours of varying CPX concentration (25 h, 48 h, and 72 h). In two days treatment, the cells are exposed to 50 uM-1.5625 uM for two days and the effect was determined by hexosaminidase assay at 48 h and 72 h time points. In three days treatment, the cells are exposed to 50 uM-1.5625 uM for three days and the effect was determined by hexosaminidase assay at 72 h time point.\n253JBV Cells were incubated with CPX in normal urine (20% normal urine in complete RPMI media). […] The effect of CPX was determined by hexosaminidase assay beyond the 12 hours of varying CPX concentration (25 h, 48 h, and 72 h). […]"}}}
{"smiles": "Cc1cc(C2CCCCC2)n(O)c(=O)c1", "note": "[CPX, 6-cyclohexyl-1-hydroxy-4-methylpyridin-2(1H)-one]", "values": [{"measurement": "colony formation", "setting": "[1]", "result": "inhibited the number and size of colonies compared to control"}, {"measurement": "colony formation", "setting": "[2]", "result": "inhibited the number and size of colonies compared to control"}, {"measurement": "spheroid formation", "setting": "[3]", "result": "significant decrease in size and number of spheroids"}, {"measurement": "spheroid formation", "setting": "[4]", "result": "significant decrease in size and number of spheroids"}, {"measurement": "cell cycle progression", "setting": "[5]", "result": "induces S-phase cell cycle arrest"}, {"measurement": "mRNA expression of CSC signaling pathway genes", "setting": "[6]", "result": "significantly reduced the mRNA expression of Notch and its downstream signaling proteins"}, {"measurement": "expression of Notch pathway proteins", "setting": "[7]", "result": "significantly inhibited the expression of the γ-secretase complex proteins"}, {"measurement": "maximum inhibition of proliferation", "setting": "[8]", "result": 35, "unit": "%"}]}
